Reference: publication PMC6399515 (Insect Biochemistry and Molecular Biology, 2016)

How the values were obtained:
[1] = tested on: all mosquito P450s of the panel apart from CYP6Z2 (CYP6M2, CYP6P2, CYP6P3, CYP6P4, CYP9J5); assay: in vitro; conditions: Anopheles gambiae
[2] = biological target: T1, CYP6P2 (Anopheles gambiae, UniProt Q8T629, V81I); assay: biochemical; conditions: IC50 of DEF metabolism
T1 sequence (Q8T629 1-507 V81I): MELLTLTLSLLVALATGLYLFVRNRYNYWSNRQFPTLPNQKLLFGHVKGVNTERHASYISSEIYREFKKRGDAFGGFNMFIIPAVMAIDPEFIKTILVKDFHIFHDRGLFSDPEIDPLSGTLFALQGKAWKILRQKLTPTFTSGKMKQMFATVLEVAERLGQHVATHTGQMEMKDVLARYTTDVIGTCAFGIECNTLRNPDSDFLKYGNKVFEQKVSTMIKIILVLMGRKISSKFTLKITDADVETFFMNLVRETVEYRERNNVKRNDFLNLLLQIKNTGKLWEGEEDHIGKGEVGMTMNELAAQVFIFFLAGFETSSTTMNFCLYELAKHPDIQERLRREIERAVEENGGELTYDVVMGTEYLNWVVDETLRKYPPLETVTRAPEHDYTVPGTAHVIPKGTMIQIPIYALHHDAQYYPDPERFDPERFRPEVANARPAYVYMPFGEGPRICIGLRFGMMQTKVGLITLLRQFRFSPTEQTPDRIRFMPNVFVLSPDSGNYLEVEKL
T1 sequence (Q7QFI3 1-587 partner): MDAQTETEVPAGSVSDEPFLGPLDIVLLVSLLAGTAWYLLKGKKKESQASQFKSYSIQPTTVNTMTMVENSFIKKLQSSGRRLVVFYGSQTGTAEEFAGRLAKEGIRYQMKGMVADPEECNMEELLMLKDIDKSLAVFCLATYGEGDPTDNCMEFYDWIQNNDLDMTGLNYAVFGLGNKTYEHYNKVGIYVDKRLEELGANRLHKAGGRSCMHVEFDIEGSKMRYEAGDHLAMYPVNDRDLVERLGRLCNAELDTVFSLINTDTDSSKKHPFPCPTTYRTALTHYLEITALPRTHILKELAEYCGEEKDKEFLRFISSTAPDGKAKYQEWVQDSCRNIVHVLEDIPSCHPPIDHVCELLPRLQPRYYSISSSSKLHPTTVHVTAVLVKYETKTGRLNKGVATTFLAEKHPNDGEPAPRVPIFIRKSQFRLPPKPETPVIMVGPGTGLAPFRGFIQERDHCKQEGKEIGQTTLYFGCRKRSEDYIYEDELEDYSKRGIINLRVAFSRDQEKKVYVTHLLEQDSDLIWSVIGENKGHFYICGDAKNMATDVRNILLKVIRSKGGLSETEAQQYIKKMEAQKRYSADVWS
T1 sequence (Q86QH4 1-128 partner): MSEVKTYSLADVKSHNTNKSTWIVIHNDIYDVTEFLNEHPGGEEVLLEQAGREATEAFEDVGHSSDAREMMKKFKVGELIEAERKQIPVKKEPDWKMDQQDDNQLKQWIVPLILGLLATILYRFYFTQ

[3] = biological target: T2, CYP6P3 (Anopheles gambiae, UniProt Q8T632); assay: biochemical
T2 sequence (Q8T632 1-509): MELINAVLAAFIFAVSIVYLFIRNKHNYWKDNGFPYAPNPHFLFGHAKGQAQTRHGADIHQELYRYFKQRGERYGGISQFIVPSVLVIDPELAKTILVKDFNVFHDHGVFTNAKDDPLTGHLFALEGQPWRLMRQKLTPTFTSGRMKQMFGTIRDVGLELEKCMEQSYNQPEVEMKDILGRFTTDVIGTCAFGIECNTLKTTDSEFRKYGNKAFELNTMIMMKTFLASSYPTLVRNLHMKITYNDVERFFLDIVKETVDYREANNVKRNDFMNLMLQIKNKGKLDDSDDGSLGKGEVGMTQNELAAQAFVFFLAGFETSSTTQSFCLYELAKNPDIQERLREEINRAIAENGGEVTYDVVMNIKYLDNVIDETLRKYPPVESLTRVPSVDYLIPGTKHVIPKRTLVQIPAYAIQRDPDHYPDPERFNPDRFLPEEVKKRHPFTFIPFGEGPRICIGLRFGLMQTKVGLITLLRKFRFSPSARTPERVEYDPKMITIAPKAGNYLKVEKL
T2 sequence (Q86QH5 1-679 partner): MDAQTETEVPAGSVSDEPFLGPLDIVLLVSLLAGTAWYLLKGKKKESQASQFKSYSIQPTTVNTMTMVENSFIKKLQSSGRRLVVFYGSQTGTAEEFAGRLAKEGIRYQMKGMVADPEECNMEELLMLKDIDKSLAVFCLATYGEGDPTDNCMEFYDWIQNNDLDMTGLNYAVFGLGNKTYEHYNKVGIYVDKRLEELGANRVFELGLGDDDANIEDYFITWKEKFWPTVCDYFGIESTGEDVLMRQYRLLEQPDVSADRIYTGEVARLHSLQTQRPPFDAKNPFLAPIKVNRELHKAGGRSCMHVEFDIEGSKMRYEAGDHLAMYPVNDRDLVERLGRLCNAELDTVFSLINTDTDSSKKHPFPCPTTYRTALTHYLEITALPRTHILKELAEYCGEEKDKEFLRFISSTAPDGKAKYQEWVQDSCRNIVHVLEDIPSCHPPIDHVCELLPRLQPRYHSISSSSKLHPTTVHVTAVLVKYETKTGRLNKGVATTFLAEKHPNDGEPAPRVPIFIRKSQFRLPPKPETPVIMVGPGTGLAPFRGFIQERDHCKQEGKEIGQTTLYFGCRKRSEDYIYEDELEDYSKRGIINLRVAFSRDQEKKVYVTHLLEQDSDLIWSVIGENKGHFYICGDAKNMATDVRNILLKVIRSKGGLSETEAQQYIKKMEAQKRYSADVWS
T2 sequence (Q86QH4 1-128 partner): T1 sequence (Q86QH4 1-128 partner)

[4] = biological target: CYP6M2 (Anopheles gambiae, UniProt Q7Q449); assay: biochemical
[5] = biological target: T3, CYP9J5 (Anopheles gambiae, UniProt Q5TN57); assay: biochemical
T3 sequence (Q5TN57 1-545): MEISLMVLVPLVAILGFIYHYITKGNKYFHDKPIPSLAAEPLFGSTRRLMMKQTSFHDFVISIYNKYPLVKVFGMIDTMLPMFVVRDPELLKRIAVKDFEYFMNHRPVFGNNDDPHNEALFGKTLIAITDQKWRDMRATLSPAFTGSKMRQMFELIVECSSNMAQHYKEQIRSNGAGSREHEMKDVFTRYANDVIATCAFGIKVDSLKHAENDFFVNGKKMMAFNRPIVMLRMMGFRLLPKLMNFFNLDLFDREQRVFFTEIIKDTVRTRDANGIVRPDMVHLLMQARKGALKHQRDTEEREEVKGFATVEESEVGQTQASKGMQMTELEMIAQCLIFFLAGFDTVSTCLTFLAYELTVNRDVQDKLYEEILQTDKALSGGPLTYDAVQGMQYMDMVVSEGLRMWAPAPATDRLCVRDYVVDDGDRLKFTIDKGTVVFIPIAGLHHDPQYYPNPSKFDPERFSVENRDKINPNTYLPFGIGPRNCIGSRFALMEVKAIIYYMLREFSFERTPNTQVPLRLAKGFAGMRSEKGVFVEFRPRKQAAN
T3 sequence (Q86QH5 1-679 partner): T2 sequence (Q86QH5 1-679 partner)
T3 sequence (Q86QH4 1-128 partner): T1 sequence (Q86QH4 1-128 partner)

[6] = biological target: T4, CYP6Z2 (Anopheles gambiae, UniProt A8I285); assay: biochemical
T4 sequence (A8I285 1-492): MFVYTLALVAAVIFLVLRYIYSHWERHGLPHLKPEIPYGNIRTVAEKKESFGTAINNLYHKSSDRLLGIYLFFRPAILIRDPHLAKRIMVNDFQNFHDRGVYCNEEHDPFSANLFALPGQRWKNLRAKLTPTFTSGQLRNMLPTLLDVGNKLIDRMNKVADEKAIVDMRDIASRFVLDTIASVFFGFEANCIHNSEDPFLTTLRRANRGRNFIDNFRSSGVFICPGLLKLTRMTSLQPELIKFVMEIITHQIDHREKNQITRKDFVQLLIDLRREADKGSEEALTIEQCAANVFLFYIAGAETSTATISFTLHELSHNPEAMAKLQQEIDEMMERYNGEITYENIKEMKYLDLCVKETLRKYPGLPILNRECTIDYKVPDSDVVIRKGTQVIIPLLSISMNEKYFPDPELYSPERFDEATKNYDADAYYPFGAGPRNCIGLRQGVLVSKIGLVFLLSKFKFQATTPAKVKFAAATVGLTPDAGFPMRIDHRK
T4 sequence (Q86QH5 1-679 partner): T2 sequence (Q86QH5 1-679 partner)
T4 sequence (Q86QH4 1-128 partner): T1 sequence (Q86QH4 1-128 partner)

Chain of CYP6M2 (Q7Q449 1-499, one chain of several): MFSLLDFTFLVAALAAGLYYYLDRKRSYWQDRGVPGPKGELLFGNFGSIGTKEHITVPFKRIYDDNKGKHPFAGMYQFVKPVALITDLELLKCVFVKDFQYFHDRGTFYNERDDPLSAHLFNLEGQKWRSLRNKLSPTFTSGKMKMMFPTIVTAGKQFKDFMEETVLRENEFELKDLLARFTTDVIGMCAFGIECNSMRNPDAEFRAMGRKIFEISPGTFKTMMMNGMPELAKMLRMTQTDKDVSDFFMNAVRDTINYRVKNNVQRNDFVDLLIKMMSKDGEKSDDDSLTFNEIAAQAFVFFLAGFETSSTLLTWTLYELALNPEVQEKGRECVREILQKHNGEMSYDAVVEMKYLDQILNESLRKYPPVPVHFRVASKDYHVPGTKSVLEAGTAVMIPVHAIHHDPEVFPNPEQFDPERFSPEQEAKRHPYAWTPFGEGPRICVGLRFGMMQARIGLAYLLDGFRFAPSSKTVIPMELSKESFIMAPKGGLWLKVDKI

Structure (SMILES): CC1(C)[C@H](C(=O)O[C@H](C#N)c2cccc(Oc3ccccc3)c2)[C@@H]1C=C(Br)Br [Deltamethrin, (S)-α-cyano-3-phenoxybenzyl (1R,3R)-cis-2,2-dimethyl-3-(2,2-dibromovinyl)-cyclopropanecarboxylate]
- IC50 ([1]; pH 7.4, IC50 of DEF activity): 1 to 10 µM
- IC50 ([1]; pH 7.4, category of inhibition of DEF activity): 1 to 10 µM
- IC50 [2]: 4.97 µM
- IC50 [3]: 3.17 µM
- IC50 [4]: 4.24 µM
- IC50 [5]: 6.05 µM
- IC50 ([6]; IC50 of DEF metabolism): 14 µM
- IC50 ([6]; category of inhibition of DEF metabolism): > 10 µM
